According to BindingDB's records for patent US20240116892 (Ajax Therapeutics, Inc., 2024):

Target: Tyrosine-protein kinase JAK2 [Y1007F,Y1008F] (Homo sapiens, UniProt O60674, Y1007F/Y1008F)
Test: JAK2 Binding Assay
Experimental: JAK2 (JH1 domain-catalytic, Y1007F, Y1008F) kinase was expressed as N-terminal fusion to the DNA binding domain of NFkB in transiently transfected HEK293 cells and subsequently tagged with DNA for qPCR detection. Streptavidin-coated magnetic beads were treated with biotinylated small molecule ligands for 30 minutes at room temperature to generate affinity resins for kinase assays. The liganded beads were blocked with excess biotin and washed with blocking buffer (SeaBlock (Pierce), 1% BSA, 0.05% Tween 20, 1 mmol/L DTT) to remove unbound ligand and to reduce nonspecific phage binding. Binding reactions were assembled by combining kinases, liganded affinity beads, and test compounds in 1× binding buffer (1× PBS, 0.05% Tween 20, 0.1% BSA, 1 mmol/L DTT). Test compound was prepared as 111× stocks in 100% DMSO and directly diluted into the assay wells. All reactions were performed in polypropylene 384-well plates in a final volume of 0.02 mL. The assay plates were incubated at room temperature with shaking for 1 hour and the affinity beads were washed with wash buffer (1× PBS, 0.05% Tween 20). The beads were then re-suspended in elution buffer (1× PBS, 0.05% Tween 20, 0.5 μmol/L non-biotinylated affinity ligand) and incubated at room temperature with shaking for 30 minutes. The kinase concentration in the eluate was measured by qPCR.

Chain of Tyrosine-protein kinase JAK2 [Y1007F,Y1008F] (O60674 whole entry Y1007F/Y1008F): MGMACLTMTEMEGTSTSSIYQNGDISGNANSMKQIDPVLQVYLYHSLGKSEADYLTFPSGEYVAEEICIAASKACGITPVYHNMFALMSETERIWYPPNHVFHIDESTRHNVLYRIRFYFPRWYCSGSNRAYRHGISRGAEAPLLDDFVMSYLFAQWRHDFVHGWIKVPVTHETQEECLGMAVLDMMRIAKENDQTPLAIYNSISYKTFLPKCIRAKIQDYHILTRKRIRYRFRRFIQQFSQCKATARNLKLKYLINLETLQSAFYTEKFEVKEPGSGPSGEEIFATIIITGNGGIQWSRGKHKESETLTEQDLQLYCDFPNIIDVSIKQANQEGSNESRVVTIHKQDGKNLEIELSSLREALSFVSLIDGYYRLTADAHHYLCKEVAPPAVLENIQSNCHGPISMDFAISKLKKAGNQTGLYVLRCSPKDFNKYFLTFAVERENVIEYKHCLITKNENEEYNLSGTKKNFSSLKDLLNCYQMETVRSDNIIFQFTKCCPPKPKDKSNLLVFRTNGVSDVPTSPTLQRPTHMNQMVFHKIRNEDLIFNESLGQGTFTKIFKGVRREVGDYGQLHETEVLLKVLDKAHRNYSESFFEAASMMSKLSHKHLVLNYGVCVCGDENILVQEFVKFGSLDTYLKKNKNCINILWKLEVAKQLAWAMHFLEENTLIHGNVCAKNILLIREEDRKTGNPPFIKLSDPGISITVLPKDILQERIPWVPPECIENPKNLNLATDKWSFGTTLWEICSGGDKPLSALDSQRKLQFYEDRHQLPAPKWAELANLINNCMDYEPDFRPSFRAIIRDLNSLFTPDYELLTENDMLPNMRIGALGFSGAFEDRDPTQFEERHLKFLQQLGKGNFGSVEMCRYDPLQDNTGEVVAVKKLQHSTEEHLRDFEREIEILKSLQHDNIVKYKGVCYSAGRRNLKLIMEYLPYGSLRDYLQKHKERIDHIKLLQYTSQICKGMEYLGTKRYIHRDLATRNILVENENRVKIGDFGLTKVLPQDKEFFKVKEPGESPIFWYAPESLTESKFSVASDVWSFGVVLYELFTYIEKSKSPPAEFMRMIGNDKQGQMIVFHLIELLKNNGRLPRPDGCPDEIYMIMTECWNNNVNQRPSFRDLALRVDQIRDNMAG

Kd [nM]	SMILES
< 10	Cn1cc(C(F)(F)F)cc(NC(=O)N2CCO[C@@H]3CN(c4cnc(NC(=O)C5CC5)cn4)CC[C@H]32)c1=O [US20240116892, Compound I-148-b]
< 10	CN(C(=O)Nc1cc(C(F)(F)F)cn(C)c1=O)[C@@H]1CCN(c2cnc3[nH]ncc3c2)C[C@@H]1F [US20240116892, Compound I-62-b]
< 10	CN(C(=O)Nc1cc(C(F)(F)F)cn(C)c1=O)C12CC(c3cnc4[nH]ccc4c3)(C1)C2 [US20240116892, Compound I-121]
